Results published in ChEMBL document CHEMBL1201862, “PubChem BioAssay data set” (2004).
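Values below derive from 48-hour exposures of cells grown in 96-well plates, with endpoints linearly interpolated between the two concentrations bracketing the appropriate inhibition level. GI50: concentration for 50% inhibition of growth.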 The source made the active and inactive calls. No stated cut-off is given here; in the data, active = GI50 up to about 1.1 µM and inactive = higher.

Legend:
Assay in all cases: NCI anticancer screen, dose series, 48 h
SN12C = tested on: SN12C
OVCAR-8 = tested on: OVCAR-8
U-251 = tested on: U-251
HOP-92 = tested on: HOP-92
UACC-62 = tested on: UACC-62
OVCAR-5 = tested on: OVCAR-5
OVCAR-3 = tested on: OVCAR-3
SW-620 = tested on: SW-620
RXF 393 = tested on: RXF 393
PC-3 = tested on: PC-3
CCRF-CEM = tested on: CCRF-CEM
EKVX = tested on: EKVX
NCI/ADR-RES = tested on: NCI/ADR-RES
SK-MEL-28 = tested on: SK-MEL-28
SF-295 = tested on: SF-295
NCI-H460 = tested on: NCI-H460
LOX IMVI = tested on: LOX IMVI
NCI-H522 = tested on: NCI-H522
MOLT-4 = tested on: MOLT-4
HCC 2998 = tested on: HCC 2998

| SMILES | GI50 (SN12C) | GI50 (OVCAR-8) | GI50 (U-251) | GI50 (HOP-92) | GI50 (UACC-62) | GI50 (OVCAR-5) | GI50 (OVCAR-3) | GI50 (SW-620) | GI50 (RXF 393) | GI50 (PC-3) | GI50 (CCRF-CEM) | GI50 (EKVX) | GI50 (NCI/ADR-RES) | GI50 (SK-MEL-28) | GI50 (SF-295) | GI50 (NCI-H460) | GI50 (LOX IMVI) | GI50 (NCI-H522) | GI50 (MOLT-4) | GI50 (HCC 2998) |
| --- | --- | --- | --- | --- | --- | --- | --- | --- | --- | --- | --- | --- | --- | --- | --- | --- | --- | --- | --- | --- |
| CCOP(=O)(CN1CCNCCN(CP(=O)(OCC)OCC)CC1)OCC | > 100 µM (inactive) | > 100 µM (inactive) | > 100 µM (inactive) | > 100 µM (inactive) | > 100 µM (inactive) | > 100 µM (inactive) | > 100 µM (inactive) | > 100 µM (inactive) | > 100 µM (inactive) | > 100 µM (inactive) | > 31.6 µM (inactive) | > 100 µM (inactive) | > 100 µM (inactive) | > 100 µM (inactive) | > 100 µM (inactive) | > 100 µM (inactive) | > 100 µM (inactive) | > 100 µM (inactive) | > 100 µM (inactive) |  |
| [N-]=[N+]=NC[C@H]1OCO[C@H](CN=[N+]=[N-])[C@@H](OCCOCCCl)[C@@H]1OCCOCCCl | > 100 µM (inactive) | > 100 µM (inactive) | > 100 µM (inactive) |  | 80 µM (inactive) |  | > 100 µM (inactive) | > 100 µM (inactive) | 5.66 µM (inactive) | > 100 µM (inactive) | > 100 µM (inactive) | > 100 µM (inactive) | > 100 µM (inactive) | > 100 µM (inactive) | > 100 µM (inactive) | > 100 µM (inactive) | > 100 µM (inactive) | > 100 µM (inactive) | > 100 µM (inactive) | > 100 µM (inactive) |
| CC(=O)OC1=C(CC(C)(C)C)C(=O)c2ccccc2C1=O |  | 27.2 µM (inactive) | 44.8 µM (inactive) |  | 32.1 µM (inactive) |  |  | 33 µM (inactive) | 28.3 µM (inactive) | 29.1 µM (inactive) | 19.3 µM (inactive) | 37 µM (inactive) | 18.1 µM (inactive) | 42.4 µM (inactive) | 22.7 µM (inactive) | 25 µM (inactive) | 47.5 µM (inactive) |  |  | 40.2 µM (inactive) |
| CN(C)CCNC1=CC(=O)c2nc3ccccc3c3ccnc1c23 | 6.49 µM (inactive) | 4.36 µM (inactive) | 8.26 µM (inactive) | 11.7 µM (inactive) | 5.31 µM (inactive) | 5.74 µM (inactive) | 2.78 µM (inactive) | 4.42 µM (inactive) |  | 3.36 µM (inactive) | 3.88 µM (inactive) | 2.94 µM (inactive) | 4.13 µM (inactive) | 11.4 µM (inactive) | 4.47 µM (inactive) | 2.39 µM (inactive) | 2.04 µM (inactive) | 2.94 µM (inactive) | 2.48 µM (inactive) | 4.47 µM (inactive) |
| CC(C)C(/C=C/c1ccc(Cl)c(Cl)c1)=N\NC(=O)N/N=C(/C=C/c1ccc(Cl)c(Cl)c1)C(C)C | > 100 µM (inactive) | > 100 µM (inactive) | > 100 µM (inactive) | > 100 µM (inactive) | > 100 µM (inactive) | > 100 µM (inactive) | > 100 µM (inactive) | > 100 µM (inactive) |  | > 100 µM (inactive) | > 100 µM (inactive) | > 100 µM (inactive) | > 100 µM (inactive) | > 100 µM (inactive) | > 100 µM (inactive) | > 100 µM (inactive) | > 100 µM (inactive) | > 100 µM (inactive) | > 100 µM (inactive) | > 100 µM (inactive) |
| Cn1c(=O)oc2cc(Br)ccc21 | > 100 µM (inactive) | > 100 µM (inactive) |  |  | > 100 µM (inactive) | > 100 µM (inactive) | > 100 µM (inactive) | > 100 µM (inactive) | > 100 µM (inactive) | > 100 µM (inactive) | > 100 µM (inactive) | 91.4 µM (inactive) | > 100 µM (inactive) | > 100 µM (inactive) | > 100 µM (inactive) | > 100 µM (inactive) | > 100 µM (inactive) | > 100 µM (inactive) | > 100 µM (inactive) | > 100 µM (inactive) |
| COc1nc(SC)nc2c1C(O)n1c(nc3ccccc31)S2 (stereo not drawn) | 24.3 µM (inactive) | 14.1 µM (inactive) | 10.6 µM (inactive) | 23.3 µM (inactive) | 0.551 µM (active) | 82 µM (inactive) | 32.7 µM (inactive) | 9.14 µM (inactive) |  | 19.3 µM (inactive) | 2.32 µM (inactive) | 36.1 µM (inactive) | 10.5 µM (inactive) | 9.16 µM (inactive) | 20.7 µM (inactive) | 15 µM (inactive) | 34.6 µM (inactive) | 23 µM (inactive) | 4.15 µM (inactive) | 6.79 µM (inactive) |
| Nc1ncnc2c1ncn2[C@@H]1C[C@@H]1CO | > 100 µM (inactive) | > 100 µM (inactive) | > 100 µM (inactive) |  |  | > 100 µM (inactive) | > 100 µM (inactive) | > 100 µM (inactive) |  | > 100 µM (inactive) | > 100 µM (inactive) | > 100 µM (inactive) | > 100 µM (inactive) |  | > 100 µM (inactive) | > 100 µM (inactive) | > 100 µM (inactive) | > 100 µM (inactive) | > 100 µM (inactive) | > 100 µM (inactive) |
| S=C(Nc1ccc(Cl)cc1)c1ccc(CN2CCCCC2)s1 | 11.9 µM (inactive) | 4.22 µM (inactive) | 10.1 µM (inactive) |  | 5.22 µM (inactive) | 1.56 µM (inactive) | 31.1 µM (inactive) | 4.4 µM (inactive) |  | 18.5 µM (inactive) | 3.17 µM (inactive) | 12.3 µM (inactive) | 16.8 µM (inactive) | 4.24 µM (inactive) |  | 4.62 µM (inactive) | 2.48 µM (inactive) | 21.9 µM (inactive) | 2.77 µM (inactive) | 7.16 µM (inactive) |
| CC1(C)OCC2(CO1)CSCCCSCC1(COC(C)(C)OC1)CSCCCSC2 | > 100 µM (inactive) | > 100 µM (inactive) | > 100 µM (inactive) | > 100 µM (inactive) | > 100 µM (inactive) | > 100 µM (inactive) | > 100 µM (inactive) | > 100 µM (inactive) |  | > 100 µM (inactive) | > 100 µM (inactive) | > 100 µM (inactive) | > 100 µM (inactive) | > 100 µM (inactive) | > 100 µM (inactive) | > 100 µM (inactive) | > 100 µM (inactive) | > 100 µM (inactive) | > 100 µM (inactive) | > 100 µM (inactive) |
| CCn1c(=O)ccc2ccc(N(CCO)CCO)nc21 | > 100 µM (inactive) | > 100 µM (inactive) | > 100 µM (inactive) |  | > 100 µM (inactive) | > 100 µM (inactive) | > 100 µM (inactive) | > 100 µM (inactive) | > 100 µM (inactive) | > 100 µM (inactive) | > 100 µM (inactive) | > 100 µM (inactive) | > 100 µM (inactive) | > 100 µM (inactive) | > 100 µM (inactive) | > 100 µM (inactive) |  | > 100 µM (inactive) | 97.7 µM (inactive) | > 100 µM (inactive) |
| CCOC(=O)c1nnsc1NC(=O)Nc1ccc(Cc2ccc(NC(=O)Nc3snnc3C(=O)OCC)cc2)cc1 | 28.3 µM (inactive) | 27.5 µM (inactive) | 31.3 µM (inactive) |  | 76 µM (inactive) | > 100 µM (inactive) | > 100 µM (inactive) | > 100 µM (inactive) | 18.2 µM (inactive) | 66.4 µM (inactive) | > 100 µM (inactive) | 85.3 µM (inactive) | > 100 µM (inactive) | > 100 µM (inactive) | 70 µM (inactive) | 25.6 µM (inactive) |  |  | > 100 µM (inactive) | > 100 µM (inactive) |
| O=[N+]([O-])c1ccc2c3c1[C@@H]1O[C@@H]1c1cccc(c1-3)[C@@H]1O[C@H]21 | 2.71 µM (inactive) | 2.04 µM (inactive) | 4.08 µM (inactive) | 9.46 µM (inactive) | 7.14 µM (inactive) | 13.6 µM (inactive) | 3.05 µM (inactive) | 2.72 µM (inactive) | 4.17 µM (inactive) | 7.91 µM (inactive) | 2.45 µM (inactive) | 6.35 µM (inactive) | 4.91 µM (inactive) | 3.1 µM (inactive) | 11 µM (inactive) |  | 1.27 µM (inactive) | 1.67 µM (inactive) | 4.69 µM (inactive) |  |
| C[C@@H](NC(C#N)c1ccco1)c1ccccc1 (stereo partly drawn) | > 100 µM (inactive) | > 100 µM (inactive) | > 100 µM (inactive) | 30.4 µM (inactive) | > 100 µM (inactive) | > 100 µM (inactive) | > 100 µM (inactive) | > 100 µM (inactive) | > 100 µM (inactive) | > 100 µM (inactive) | > 100 µM (inactive) | > 100 µM (inactive) | > 100 µM (inactive) | > 100 µM (inactive) | > 100 µM (inactive) | > 100 µM (inactive) |  |  | > 100 µM (inactive) | 32.7 µM (inactive) |
| N=C(N)Nc1nc2cc([N+](=O)[O-])ccc2[nH]1 | 86.1 µM (inactive) | > 100 µM (inactive) | 91.4 µM (inactive) | > 100 µM (inactive) | 55.1 µM (inactive) | > 100 µM (inactive) | 99.3 µM (inactive) | > 100 µM (inactive) | 58.9 µM (inactive) | 81.1 µM (inactive) | > 100 µM (inactive) | 41.6 µM (inactive) | 58.5 µM (inactive) | > 100 µM (inactive) | 66.2 µM (inactive) | > 100 µM (inactive) | > 100 µM (inactive) | 68.5 µM (inactive) | > 100 µM (inactive) |  |
